Each compound was assayed against T1, p70S6K (Homo sapiens, UniProt P23443, T412E) (assay: p70S6 Kinase Assay (Luciferase-Coupled Chemiluminescent Kinase assay, LCCA)). Conditions: human p70S6 kinase domain residues 1-421, T412E; 5 μM ATP; read-out: p70S6K IC50.
T1 construct: human p70S6 kinase domain residues 1-421, containing a T412E mutation; made in house
Assay type: biochemical
Procedure: Kinase activity and compound inhibition are investigated using one or more of the three assay formats described below. The ATP concentrations for each assay are selected to be close to the Michaelis-Menten constant (KM) for each individual kinase. Dose-response experiments are performed at 10 different inhibitor concentrations in a 384-well plate format. […] Y=Min+(Max−Min)/(1+(X/IC50)^H) Equation (2) p70S6 Kinase Assay
Biochemical activity of p70S6 kinase was assessed using a Luciferase-Coupled Chemiluminescent Kinase assay (LCCA) format. Kinase activity was measured as the percent ATP remaining following the kinase reaction. Remaining ATP was detected by luciferase-luciferin-coupled chemiluminescence. […] The mixture is incubated at ambient temperature for 2 hours after which 20 μL luciferase-luciferin mix is added and the chemiluminescent signal read using a Wallac Victor^2 reader.

T1 sequence (P23443 1-421 T412E): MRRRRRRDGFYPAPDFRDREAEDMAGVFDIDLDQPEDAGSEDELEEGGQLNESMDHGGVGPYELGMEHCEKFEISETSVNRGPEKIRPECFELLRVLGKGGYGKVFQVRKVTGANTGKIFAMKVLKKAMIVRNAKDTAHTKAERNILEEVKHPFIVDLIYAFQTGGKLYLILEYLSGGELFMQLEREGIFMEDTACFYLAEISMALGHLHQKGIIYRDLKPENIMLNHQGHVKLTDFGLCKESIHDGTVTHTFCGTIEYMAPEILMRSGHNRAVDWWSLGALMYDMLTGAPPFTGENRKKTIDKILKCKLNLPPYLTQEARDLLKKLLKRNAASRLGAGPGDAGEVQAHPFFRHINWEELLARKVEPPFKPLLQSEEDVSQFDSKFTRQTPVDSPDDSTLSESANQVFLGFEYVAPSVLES

IC50 [nM] | SMILES
> 2000 | CSc1nc(N)nc(N[C@@H](C)C(=O)Nc2cccc(C(=O)N3CCN(C)CC3)c2)c1C#N [Example 82, N^2-[2-amino-5-cyano-6-(methylthio)pyrimidin-4-yl]-N-{3-[(4-methylpiperazin-1-yl)carbonyl]phenyl}-L-alaninamide]
> 2000 | CSc1nc(N)nc(NCCC[C@H](N)C(=O)Nc2cccc(C(F)(F)F)c2)c1C#N [Example 155, N~5~-[2-amino-5-cyano-6-(methylthio)pyrimidin-4-yl]-N-[3-(trifluoromethyl)phenyl]-L-ornithinamide]
500 to 2000 | CSc1nc(N)nc(N[C@@H](CCC(=O)O)C(=O)Nc2cccc(C(F)(F)F)c2)c1C#N [Example 149, N~2~-[2-amino-5-cyano-6-(methylthio)pyrimidin-4-yl]-N-[3-(trifluoromethyl)phenyl]-Lalpha-glutamine]
> 2000 | C[C@@H](C(=O)Nc1cccc(C(F)(F)F)c1)N(C)c1nc(N)nc([S+](C)[O-])c1C#N (stereo partly drawn) [Example 118, N^2-[2-amino-5-cyano-6(methylsulfinyl)pyrimidin-4-yl]-N^2-methyl-N-[3-(trifluoromethyl)phenyl]-L-alaninamide]
> 2000 | COc1nc(N)nc(N[C@@H](CN2CCOCC2)C(=O)Nc2cccc(C(F)(F)F)c2)c1C#N [Example 192, N~2~-[2-amino-5-cyano-6-(methyloxy)pyrimidin-4-yl]-3-morpholin-4-yl-N-[3-(trifluoromethyl)phenyl]-L-alaninamide]
> 2000 | CSc1nc(N)nc(SCC(=O)Nc2cc(C(F)(F)F)cc(C(F)(F)F)c2)c1C#N [Example 77, 2-{[2-amino-5-cyano-6-(methylthio)pyrimidin-4-yl]thio}-N-[3,5-bis(trifluoromethyl)phenyl]acetamide]
500 to 2000 | CNc1nc(NCC(=O)Nc2cccc(C(F)(F)F)c2)c(C#N)c(SC)n1 [Example 65, N^2-[5-cyano-2-(methylamino)-6-(methylthio)pyrimidin-4-yl]-N-[3-(trifluoromethyl)phenyl]glycinamide]
> 2000 | CCOc1nc(N)nc(N[C@@H](CCC[N+](C)(C)C)C(=O)Nc2cccc(C(F)(F)F)c2)c1C#N [Example 169, N-((4S)-4-{[2-amino-5-cyano-6-(ethyloxy)pyrimidin-4-yl]amino}-5-oxo-5-{[3-(trifluoromethyl)phenyl]amino}pentyl)-N,N-dimethylmethanaminium]
> 2000 | CSc1nc(N)nc(N[C@@H](C)C(=O)Nc2cccc(N)c2)c1C#N [Example 124, N^2-[2-amino-5-cyano-6-(methylthio)pyrimidin-4-yl]-N-(3-aminophenyl)-L-alaninamide]
> 2000 | CCOc1nc(N)nc(N[C@@H](CCC(=O)OCc2ccccc2)C(=O)Nc2cccc(C(F)(F)F)c2)c1C#N [Example 165, phenylmethyl N~2~-[2-amino-5-cyano-6-(ethyloxy)pyrimidin-4-yl]-N-[3-(trifluoromethyl)phenyl]-L-apha-glutaminate]
> 2000 | COc1nc(N)nc(N[C@@H](C)C(=O)Nc2cccc(C(F)(F)F)c2)c1C#N [Example 78, N^2-[2-amino-5-cyano-6-(methyloxy)pyrimidin-4-yl]-N-[3-(trifluoromethyl)phenyl]-L-alaninamide]
50 to 500 | Nc1nc(SCC(=O)Nc2cccc(C(F)(F)F)c2)c(C=O)c(Sc2ccccc2)n1 [Example 51, 2-{[2-amino-5-formyl-6-(phenylthio)pyrimidin-4-yl]thio}-N-[3-(trifluoromethyl)phenyl]acetamide]
> 2000 | CCOc1nc(N)nc(N[C@@H](COC)C(=O)Nc2cccc(C(F)(F)F)c2)c1C#N [Example 197, N~2~-[2-amino-5-cyano-6-(ethyloxy)pyrimidin-4-yl]-O-methyl-N-[3-(trifluoromethyl)phenyl]-L-serinamide]
> 2000 | CSc1nc(N(C)C)nc(NCC(=O)Nc2cccc(C(F)(F)F)c2)c1C#N [Example 71, N^2-[5-cyano-2-(dimethylamino)-6-(methylthio)pyrimidin-4-yl]-N-[3-(trifluoromethyl)phenyl]glycinamide]
> 2000 | CCOC(=O)CN(NC(=O)Nc1cccc(C(F)(F)F)c1)c1nc(N)nc(SC)c1C#N [Example 95, ethyl[1-[2-amino-5-cyano-6-(methylthio)pyrimidin-4-yl]-2-({[3-(trifluoromethyl)phenyl]amino}carbonyl)hydrazino]acetate]
500 to 2000 | CSc1nc(N)nc(NCC(=O)Nc2cccc(C(F)(F)F)c2)c1/C=N/O [Example 59, N^2-[2-amino-5-[(E)-(hydroxymino)methyl]-6-(methylthio)pyrimidin-4-yl]-N-[3-(trifluoromethyl)phenyl]glycinamide]

IC50 [nM] | SMILES
500 to 2000 | CSc1nc(N)nc(SCC(=O)Nc2cc(C(F)(F)F)ccc2N)c1C#N [Example 62]
> 2000 | CSc1nc(N)nc(N[C@@H](C)C(=O)Nc2cc(N)cc(C(F)(F)F)c2)c1C#N [Example 94, N^2-[2-amino-5-cyano-6-(methylthio)pyrimidin-4-yl]-N-[3-amino-5-(trifluoromethyl)phenyl]-L-alaninamide]
> 2000 | CSc1nc(N)nc(N[C@@H](CN2CCOCC2)C(=O)Nc2cccc(C(F)(F)F)c2)c1C#N [Example 191, N~2~-[2-amino-5-cyano-6-(methylthio)pyrimidin-4-yl]-3-morpholin-4-yl-N-[3-(trifluoromethyl)phenyl]-L-alaninamide]
> 2000 | C[C@H](Nc1nc(N)nc(S(C)(=O)=O)c1C#N)C(=O)Nc1cccc(C(F)(F)F)c1 [Example 75, N^2-[2-amino-5-cyano-6-(methylsulfonyl)pyrimidin-4-yl]-N-[3-(trifluoromethyl)phenyl]-L-alaninamide]
> 2000 | CSc1nc(N)nc(N(CCC2CCOCC2)CC(=O)Nc2cccc(C(F)(F)F)c2)c1C#N [Example 105, N^2-[2-amino-5-cyano-6-(methylthio)pyrimidin-4-yl]-N^2-[2-(tetrahydro-2H-pyran-4-4yl)ethyl]-N-[3-(trifluoromethyl)phenyl]glycinamide]
> 2000 | COc1ccc(C(F)(F)F)cc1NC(=O)[C@H](C)Nc1nc(N)nc(SC)c1C#N [Example 79, N^2-[2-amino-5-cyano-6-(methylthio)pyrimidin-4-yl]-N-[2-(methyloxy)-5-(trifluoromethyl)phenyl]-L-alaninmide]
> 2000 | CCN(CC)CCNc1cc(NC(=O)[C@H](C)Nc2nc(N)nc(SC)c2C#N)cc(C(F)(F)F)c1 [Example 106, N^2-[2-amino-5-cyano-6-(methylthio)pyrimidin-4-yl]-N-[3-{[2-(diethylamino)ethyl]amino}-5-(trifluoromethyl)phenyl]-L-alaninamide]
50 to 500 | CSc1nc(NC(C)=O)nc(SCC(=O)Nc2cccc(C(F)(F)F)c2)c1C#N [Example 41, 2-{[2-(acetylamino)-5-cyano-6-(methylthio)pyrimidin-4-yl]thio}-N-[3-(trifluoromethyl)phenyl]acetamide]
> 2000 | CCOc1nc(N)nc(N[C@@H](C)C(=O)Nc2cc(C(=O)NCCCN3CCCC3)cc(C(F)(F)F)c2)c1C#N [Example 158, 3-({N-[2-amino-5-cyano-6-(ethyloxy)pyrimidin-4-yl]-L-alanyl}amino)-N-(3-pyrrolidin-1-ylpropyl)-5-(trifluoromethyl)benzamide]
> 2000 | CCOc1nc(N)nc(N[C@@H](C)C(=O)Nc2cc(C(=O)NCCCN3CCN(C)CC3)cc(C(F)(F)F)c2)c1C#N [Example 161]
500 to 2000 | COC(=O)CC[C@H](Nc1nc(N)nc(SC)c1C#N)C(=O)Nc1cccc(C(F)(F)F)c1 [Example 146, methyl N~2~-[2-amino-5-cyano-6-(methylthio0pyrimidin-4-yl]-N-'-(trifluoromethyl)phenyl]-L-alpha-glutaminate]
> 2000 | CSc1nc(N)nc(N[C@@H](CCC(=O)OCc2ccccc2)C(=O)Nc2cccc(C(F)(F)F)c2)c1C#N [Example 182, phenylmethyl N~2~-[2-amino-5-cyano-6-(methylthio)pyrimidin-4-yl]-N-[3-(trifluoromethyl)phenyl]-L-alpha-glutaminate]
50 to 500 | Nc1nc(Cl)c(C=O)c(OCC(=O)Nc2cccc(C(F)(F)F)c2)n1 [Example 50, 2-[(2-amino-6-chloro-5-formylpyrimidin-4-yl)oxy]-N-[3-(trifluoromethyl)phenyl]acetamide]
> 2000 | CCOc1nc(N)nc(N[C@@H](CCCNC(C)=O)C(=O)Nc2cccc(C(F)(F)F)c2)c1C#N [Example 186, N~5~-acetyl-N~2~-[2-amino-5-cyano-6-(ethyloxy)pyrimidin-4-yl]-N-[3-(trifluoromethyl)phenyl]-L-ornithinamide]
> 2000 | C[C@H](Nc1nc(N)nc(O)c1C#N)C(=O)Nc1cccc(C(F)(F)F)c1 [Example 99, N^2-(2-amino-5-cyano-6-hydroxypyrimidin-4-yl)-N-[3-(trifluoromethyl)phenyl]-L-alaninamide]
> 2000 | CCOc1nc(N)nc(N[C@@H](C)C(=O)Nc2cc(C(=O)NCCN3CCOCC3)cc(C(F)(F)F)c2)c1C#N [Example 159, 3-({N-[2-amino-5-cyano-6-(ethyloxy)pyrimidin-4-yl]-L-alanyl}amino)-N-(2-morpholin-4-ylethyl)-5-(trifluoromethyl)benzamide]

Same assay, conditions: p70S6K IC50, human p70S6 kinase domain residues 1-421, T412E; 5 μM ATP

SMILES | IC50 [nM]
CSc1nc(N)nc(O[C@@H](C)C(=O)Nc2cccc(C(F)(F)F)c2)c1C#N [Example 42, (2S)-2-{[2-amino-5-cyano-6-(methylthio)pyrimidin-4-yl]oxy}-N-[3-(trifluoromethyl)phenyl]propanamide] | 50 to 500

Source: patent US7816353B2 (Exelixis, Inc., priority 2003, dated 2010)
